The text below walks through data of article PMC6911004, “Fragment-based screening identifies molecules targeting the substrate-binding ankyrin repeat domains of tankyrase” (Scientific Reports, 2019).

What all share (assay type): binding
Test [1] deals with T1, TNKS2 ARC5 (Homo sapiens, UniProt Q9H2K2).
T1 construct: followed by TNKS2 ARC5 (1 μL, 100 μM stock); His6-GST; made in house; host or cells: E. coli
Description: T2 relaxation-edited ligand-observed NMR assay. Conditions: DSF hit validation. From the text: 39 hits from the DSF screen were suitable for follow-up by ligand-observed NMR methods. We re-purchased fragments and performed T2 relaxation-edited (CPMG-edited) and waterLOGSY experiments for each fragment with TNKS2 ARC5. We explored saturation transfer difference (STD) NMR, also using TNKS2 ARC5, but the assay was not sensitive enough to produce a reliable binding signal, likely due to the relatively small size of a single ARC protein (data not shown). High ligand concentrations were required to achieve sufficient signal, which in turn could lead to false-positive hits due to non-specific binding.
Using the relaxation-edited assay, we tested each fragment in three independent measurements (Fig. 2C), unless we obtained two negative results (non-binding) in the first two experiments. […] As a negative NOE for the compound-only sample could indicate aggregation, we flagged these compounds as potentially problematic. We identified 14 fragments that bound to TNKS2 ARC5 by both relaxation-edited and waterLOGSY methods (0.78% hit rate). We next tested whether binding of these fragments occurred competitively with the 3BP2 TBM peptide, and also if they bound to TNKS2 ARC4, as competition with peptide binders at various different ARCs will be a prerequisite for an efficient substrate binding antagonist. Three fragments (1, 2, 3) bound to both TNKS2 ARC4 and ARC5 and were competitive with the TBM peptide (0.16% hit rate) (Fig. 2E). Three further fragments also bound to both ARCs, but were not TBM competitive by NMR.
Fragments were dispensed in duplicate into a 384-well plate (250 nL, 100 mM stock in DMSO). Wells were backfilled with DMSO (2.25 μL). Tankyrase ARC protein (47.5 μL in 25 mM HEPES, pH 7.5, 100 mM NaCl, 2 mM TCEP, 10% D2O; 20 μM final protein concentration in the assay) was added to the ‘protein’ samples; buffer only (47.5 μL) was added to the ‘compound-only’ samples. Solutions were transferred to 1.7 mm NMR tubes using a Gilson liquid handling system. ^1H NMR spectra were recorded, with the DMSO and water signals dampened. A relaxation spin filter was applied at 400 ms[65]. Data were processed using Bruker Topspin 3.14. Lines were broadened with LB = 3.0, and the baseline was corrected between 6.0–10.0 ppm. The average integral for all peaks between 6.0–10.0 ppm was calculated, and the difference between compound-only and compound-plus-protein samples was compared. A reduction in signal integrals of ≥15% was classified as a hit. For competitive experiments, 3BP2 16-mer peptide (100 μM) was added, and the spectra were recorded and processed as above. The variability in signal reduction in the relaxation-edited experiment was previously determined as approximately ± 10% (Liu et al., unpublished observations).

For test [2], the target named is T2, TNKS2 ARC1 (20–178) (Homo sapiens, UniProt Q9H2K2).
T2 construct: TNKS2 ARC1 (20–178); His6-GST; made in house; host or cells: E. coli
Briefly: T2 relaxation-edited ligand-observed NMR assay. From the text: The anticipated functional redundancy between ARCs and the existence of two tankyrase paralogues will require efficient substrate binding antagonists to ideally bind all TBM-binding ARCs of both TNKS and TNKS2. […] We tested binding of compound 9 to all TNKS and TNKS2 ARCs using the relaxation-edited NMR assay (Fig. 4E, Table 3). Compound 9 bound all ARCs, with the exception of TNKS2 ARC1. Given the invariant residue infrastructure of the peptide-binding pocket in ARC1 of TNKS and TNKS2, this observation is difficult to reconcile with available structural information. […]
Fragments were dispensed in duplicate into a 384-well plate (250 nL, 100 mM stock in DMSO). […] Solutions were transferred to 1.7 mm NMR tubes using a Gilson liquid handling system. ^1H NMR spectra were recorded, with the DMSO and water signals dampened. […] The average integral for all peaks between 6.0–10.0 ppm was calculated, and the difference between compound-only and compound-plus-protein samples was compared. […] For competitive experiments, 3BP2 16-mer peptide (100 μM) was added, and the spectra were recorded and processed as above. The variability in signal reduction in the relaxation-edited experiment was previously determined as approximately ± 10% (Liu et al., unpublished observations).

In test [3] the target is T3, TNKS2 ARC4 aromatic glycine sandwich (YY536/569AA) (Homo sapiens, UniProt Q9H2K2, Y536A/Y569A).
T3 construct: TNKS2 ARC4 (488–649); His6-GST; made in house; host or cells: E. coli BL21-CodonPlus (DE3)-RIL
Briefly: WaterLOGSY NMR with mutant ARC. From the text: (§1) We used three previously designed TNKS2 ARC4 mutant variants[4] to explore potential binding determinants for fragment 9. A WFE591/593/598AAA triple-mutation abrogates three key residues in the “arginine cradle”; YY536/569AA truncates two tyrosine residues that form the “glycine sandwich”, and L560W introduces a bulky residue into the “central patch” that sterically clashes with the TBM peptide (see Fig. 5A,B for locations of the mutated residues). We tested binding of compound 9 to the wild-type and mutant ARCs by ligand-observed NMR, using the relaxation-edited assay (Fig. 5C, Table 4). […] Binding was impaired but not abolished for the “central patch” mutant variant (L560W).
(§2) Fragments were dispensed in duplicate into a 384-well plate (250 nL, 100 mM stock in DMSO). Wells were backfilled with DMSO (2.25 μL). Tankyrase ARC protein (47.5 μL in 25 mM HEPES-NaOH pH7.5, 100 mM NaCl, 2 mM TCEP, 10% D2O; 20 μM final protein concentration in the assay) was added to the samples containing protein; buffer only (47.5 μL) was added to the compound-only samples. Solutions were transferred to 1.7 mm NMR tubes using a Gilson liquid handling system. ^1H NMR spectra were recorded, with the DMSO signal dampened. The bulk water signal at 4.7 ppm was selectively inverted. Data were processed using Bruker Topspin 3.14[66].

The target of test [4] is T4, TNKS2 ARC4 arginine cradle (WFE591/593/598AAA) (Homo sapiens, UniProt Q9H2K2, E598A/F593A/W591A).
T4 construct: The cell was filled with TNKS2 ARC4 (488–649); His6-GST; made in house; host or cells: E. coli
Description: WaterLOGSY NMR with mutant ARC.
Excerpt: as §1, §2

Test [5] deals with T5, TNKS2 ARC4 central patch (L560W) (Homo sapiens, UniProt Q9H2K2, L560W).
T5 construct: TNKS2 ARC4 (488–649); His6-GST; made in house; host or cells: E. coli BL21-CodonPlus (DE3)-RIL
Description: WaterLOGSY NMR with mutant ARC.
Excerpt: as §1, §2

For `O=C(NCc1ccco1)c1ccc(F)cc1` [compound 3], the “binding to TNKS2 ARC5 by ligand-observed NMR, in words” value in test [1] (relaxation-edited and waterLOGSY) is recorded as “bound”. In addition, the “competition with the 3BP2 TBM peptide by relaxation-edited NMR” value in test [1] (ARC used for competition not given) is “competitive”.

Turning to `O=C(NCc1ccco1)c1ccc2nccnc2c1` [compound 9], the “T2 relaxation-edited: reduction of signal integrals” value in test [2] came out at 0%. Further, the waterLOGSY entry in test [3] is “positive NOE”; in test [4] it was “negative NOE”; in test [5] it was “positive NOE”.
